Experimental data: PubChem BioAssay (NCI)
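Following 48 hours of exposure in 96-well plates, responses at five concentrations were used to interpolate endpoints linearly. The concentration for full growth arrest is given as TGI.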

Key:
Test in all cases: growth of human tumour cells (NCI), 48 h
786-0 renal = test system: 786-0 renal
A498 renal = test system: A498 renal
A549 NSCLC = test system: A549 NSCLC
ACHN renal = test system: ACHN renal
BT-549 breast = test system: BT-549 breast
CAKI-1 renal = test system: CAKI-1 renal
COLO 205 colon = test system: COLO 205 colon
DU-145 prostate = test system: DU-145 prostate
HCT-116 colon = test system: HCT-116 colon
HCT-15 colon = test system: HCT-15 colon
HL-60(TB) leukemia = test system: HL-60(TB) leukemia
HOP-62 NSCLC = test system: HOP-62 NSCLC
HS 578T breast = test system: HS 578T breast
IGROV1 ovarian = test system: IGROV1 ovarian
K-562 leukemia = test system: K-562 leukemia
KM12 colon = test system: KM12 colon
LOX IMVI melanoma = test system: LOX IMVI melanoma
M14 melanoma = test system: M14 melanoma
MCF7 breast = test system: MCF7 breast
MDA-MB-231 breast = test system: MDA-MB-231 breast
MDA-MB-435 = test system: MDA-MB-435
MDA-N = test system: MDA-N
MOLT-4 leukemia = test system: MOLT-4 leukemia
NCI-H23 lung = test system: NCI-H23 lung
NCI-H460 lung = test system: NCI-H460 lung
NCI/ADR-RES ovarian = test system: NCI/ADR-RES ovarian
OVCAR-3 ovarian = test system: OVCAR-3 ovarian
OVCAR-5 ovarian = test system: OVCAR-5 ovarian
OVCAR-8 ovarian = test system: OVCAR-8 ovarian
PC-3 prostate = test system: PC-3 prostate
RXF 393 renal = test system: RXF 393 renal
SF-268 CNS = test system: SF-268 CNS
SF-295 CNS = test system: SF-295 CNS
SF-539 CNS = test system: SF-539 CNS
SK-MEL-2 melanoma = test system: SK-MEL-2 melanoma
SK-MEL-5 melanoma = test system: SK-MEL-5 melanoma
SK-OV-3 ovarian = test system: SK-OV-3 ovarian
SN12C renal = test system: SN12C renal
SNB-19 CNS = test system: SNB-19 CNS
SR leukemia = test system: SR leukemia
SW-620 colon = test system: SW-620 colon
T-47D breast = test system: T-47D breast
U251 CNS = test system: U251 CNS
UACC-257 melanoma = test system: UACC-257 melanoma
UACC-62 melanoma = test system: UACC-62 melanoma
UO-31 renal = test system: UO-31 renal
CCRF-CEM leukemia = test system: CCRF-CEM leukemia
EKVX NSCLC = test system: EKVX NSCLC
HOP-92 NSCLC = test system: HOP-92 NSCLC
HT29 colon = test system: HT29 colon
MALME-3M melanoma = test system: MALME-3M melanoma
NCI-H226 lung = test system: NCI-H226 lung
NCI-H522 lung = test system: NCI-H522 lung
OVCAR-4 ovarian = test system: OVCAR-4 ovarian
SK-MEL-28 melanoma = test system: SK-MEL-28 melanoma
SNB-75 CNS = test system: SNB-75 CNS
TK-10 renal = test system: TK-10 renal

In the case of `COc1ccc(C2C3=C(Nc4ncnn42)c2ccccc2OC3c2ccccc2)cc1` (stereo not drawn), the TGI (786-0 renal) was over 100 µM, the TGI (A498 renal) was 6.36 µM and the TGI (A549 NSCLC) was over 100 µM. It also gave a TGI (ACHN renal) of over 100 µM, a TGI (BT-549 breast) of 41.5 µM and a TGI (CAKI-1 renal) of over 100 µM. The TGI (COLO 205 colon) was over 100 µM, the TGI (DU-145 prostate) was over 100 µM and the TGI (HCT-116 colon) was over 100 µM. The TGI (HCT-15 colon) was over 100 µM, the TGI (HL-60(TB) leukemia) was 8.92 µM and the TGI (HOP-62 NSCLC) was over 100 µM. It also gave a TGI (HS 578T breast) of over 100 µM, a TGI (IGROV1 ovarian) of over 100 µM and a TGI (K-562 leukemia) of over 100 µM. It also gave a TGI (KM12 colon) of 76.5 µM, a TGI (LOX IMVI melanoma) of over 100 µM and a TGI (M14 melanoma) of over 100 µM. For the same molecule, the TGI (MCF7 breast) was over 100 µM, the TGI (MDA-MB-231 breast) was over 100 µM and the TGI (MDA-MB-435) was 23.7 µM. For the same molecule, the TGI (MDA-N) was 44.1 µM, the TGI (MOLT-4 leukemia) was 51 µM and the TGI (NCI-H23 lung) was over 100 µM. It also gave a TGI (NCI-H460 lung) of over 100 µM, a TGI (NCI/ADR-RES ovarian) of over 100 µM and a TGI (OVCAR-3 ovarian) of over 100 µM. For the same molecule, the TGI (OVCAR-5 ovarian) was over 100 µM, the TGI (OVCAR-8 ovarian) was over 100 µM and the TGI (PC-3 prostate) was over 100 µM. The TGI (RXF 393 renal) was 48.1 µM, the TGI (SF-268 CNS) was over 100 µM and the TGI (SF-295 CNS) was over 100 µM. It also gave a TGI (SF-539 CNS) of over 100 µM, a TGI (SK-MEL-2 melanoma) of 53.9 µM and a TGI (SK-MEL-5 melanoma) of 62.7 µM. For the same molecule, the TGI (SK-OV-3 ovarian) was over 100 µM, the TGI (SN12C renal) was over 100 µM and the TGI (SNB-19 CNS) was over 100 µM. For the same molecule, the TGI (SR leukemia) was over 100 µM, the TGI (SW-620 colon) was over 100 µM and the TGI (T-47D breast) was 59.4 µM. For the same molecule, the TGI (U251 CNS) was over 100 µM, the TGI (UACC-257 melanoma) was over 100 µM and the TGI (UACC-62 melanoma) was over 100 µM. It also gave a TGI (UO-31 renal) of over 100 µM.

`COc1ccccc1N1CCN(CCCN2/C(=C(\O)c3ccccc3)C(=O)c3c(C)cc(C)nc3S2(=O)=O)CC1` showed a TGI (786-0 renal) of over 100 µM, a TGI (A498 renal) of over 100 µM and a TGI (A549 NSCLC) of over 100 µM. For the same molecule, the TGI (ACHN renal) was over 100 µM, the TGI (BT-549 breast) was over 100 µM and the TGI (CAKI-1 renal) was over 100 µM. It also gave a TGI (CCRF-CEM leukemia) of over 100 µM, a TGI (COLO 205 colon) of over 100 µM and a TGI (DU-145 prostate) of over 100 µM. It also gave a TGI (EKVX NSCLC) of over 100 µM, a TGI (HCT-116 colon) of over 100 µM and a TGI (HCT-15 colon) of over 100 µM. The TGI (HL-60(TB) leukemia) was over 100 µM, the TGI (HOP-62 NSCLC) was over 100 µM and the TGI (HOP-92 NSCLC) was 98 µM. The TGI (HS 578T breast) was over 100 µM, the TGI (HT29 colon) was over 100 µM and the TGI (IGROV1 ovarian) was over 100 µM. It also gave a TGI (K-562 leukemia) of over 100 µM, a TGI (KM12 colon) of over 100 µM and a TGI (LOX IMVI melanoma) of 50 µM. The TGI (M14 melanoma) was over 100 µM, the TGI (MALME-3M melanoma) was over 100 µM and the TGI (MCF7 breast) was over 100 µM. The TGI (MDA-MB-231 breast) was over 100 µM, the TGI (MDA-MB-435) was over 100 µM and the TGI (MDA-N) was over 100 µM. For the same molecule, the TGI (MOLT-4 leukemia) was over 100 µM, the TGI (NCI-H226 lung) was 87.9 µM and the TGI (NCI-H23 lung) was over 100 µM. It also gave a TGI (NCI-H460 lung) of over 100 µM, a TGI (NCI-H522 lung) of over 100 µM and a TGI (NCI/ADR-RES ovarian) of over 100 µM. It also gave a TGI (OVCAR-3 ovarian) of over 100 µM, a TGI (OVCAR-4 ovarian) of over 100 µM and a TGI (OVCAR-5 ovarian) of over 100 µM. The TGI (OVCAR-8 ovarian) was over 100 µM, the TGI (PC-3 prostate) was over 100 µM and the TGI (RXF 393 renal) was over 100 µM. It also gave a TGI (SF-268 CNS) of over 100 µM, a TGI (SF-295 CNS) of over 100 µM and a TGI (SF-539 CNS) of over 100 µM. The TGI (SK-MEL-2 melanoma) was over 100 µM, the TGI (SK-MEL-28 melanoma) was over 100 µM and the TGI (SK-MEL-5 melanoma) was over 100 µM. For the same molecule, the TGI (SK-OV-3 ovarian) was over 100 µM, the TGI (SN12C renal) was over 100 µM and the TGI (SNB-19 CNS) was over 100 µM. The TGI (SNB-75 CNS) was 30.8 µM, the TGI (SR leukemia) was over 100 µM and the TGI (SW-620 colon) was over 100 µM. For the same molecule, the TGI (T-47D breast) was over 100 µM, the TGI (TK-10 renal) was over 100 µM and the TGI (U251 CNS) was over 100 µM. The TGI (UACC-257 melanoma) was over 100 µM, the TGI (UACC-62 melanoma) was over 100 µM and the TGI (UO-31 renal) was over 100 µM.
